Test results published in US7528107B2, “Methods of treating inflammation in mammalian tissues comprising administering human alpha-defensins” (Auburn University, priority 2005, dated 2009).
“Also recorded” adds a separate entry of the source.

Legend:
Type in all cases: cell-based
[1] = system: IL-1β release from human monocytes; experiment: ATP mediated proIL-1β / mature IL-1β release from LPS-activated human monocytes (FIG. 2, FIG. 3); settings: for processing of proIL-1β after it is released extracellularly: LPS-activated human monocytes treated with ATP, then α-defensins; for ATP-mediated IL-1β release from human monocytes: summary statement
Procedure: (§1) Lipopolysaccharide (LPS) activated, ^35S-methionine-labeled human monocytes treated with human α-defensins HNP-1 or HD-5 in the presence and absence of ATP were examined. Media and cell-associated fractions were harvested separately and IL-1β was recovered from each by immunoprecipitation. The resulting immuno-precipitates were analyzed by SDS-PAGE and autoradiography. Referring now to FIG. 2, in the absence of ATP, LPS activated monocytes released about 10% of ^35S-methionine-labeled proIL-1β (31 kDa) into the media, but no mature (17 kDa) IL-1β was detected. As expected, addition of ATP to the LPS-activated monocyte culture led to the release of 90% of newly synthesized proIL-1β from the cell and more than 90% of the proIL-1β was processed to mature IL-1β and detected in the media.
(§2) Peripheral blood monocytes where isolated from healthy volunteers and patients with inflammatory bowel disease and suspended in monocyte maintenance medium (RPMI 1640 medium, 5% FBS 25 mM HEPES and 1% Pen/Strep). Blood samples from healthy volunteers were collected at the Auburn University Medical Clinic under an approved protocol. Blood samples from inflammatory bowel disease patients were provided by Dr. W. Park McGehee of Internal Medicine Associates of Opelika, Ala., U.S.A.
(§3) Monocytes were first primed with lipopolysaccharides (LPS). Monocytes were allowed to adhere for two hours, after which medium supernatants were discarded. Attached cells were rinsed twice with maintenance medium and incubated in 1 ml of maintenance medium overnight at 37° C. in a 5% CO2 environment. The following morning LPS was added to some walls to achieve a final concentration of 10 ng/ml and the cultures were activated for two hours at 37° C. The media was then removed and 1 ml of fresh medium (RPMI 1640 containing 1% FVS 25 mM HEPES and 5 mM NaHCO3) was added to each well. These LPS-activated monocytes where then treated with ATP and subsequently, monocytes were selectively treated with α-defensins for interleukin-1β post transitional processing and release studies.
Human α-defensin HNP-1 was obtained from Peptide International of Louisville, Ky., U.S.A. Recombinant human α-defensin HD-5 was provided by Dr. Edith Porter of California State University, Los Angeles, U.S.A. The quality of the synthetic peptides were verified by their anti-bacterial activity. Synthetic human α-defensin HNP-1 was further purified by HPLC and compared to the natural HNP-1 by acid-urea PAGE. LPS-activated human monocytes were treated with 0, 1, 10 and 100 micrograms at 37° C. for three hours. It was also treated with 2 mm ATP for IL-1β maturation. Supernatants were then collected after a 5 minute centrifugation in microphage tubes. The concentration of mature IL-1β and the supernatants was quantified by ELISA(R&D Systems). Because the ELISA is reported by the manufacturer to recognize both pro and mature IL-1β species, presence of proIL-1β and mature IL-1β in the supernatant and cell lysates was also determined by western blot analysis. Briefly, proteins were precipitated from the supernatants by addition of trichloroacetic acid (TCA: 7.5% final concentration) and cholic acid (0.1% final concentration) to each sample. The percipate proteins were washed twice with 100% acetone to extract residual TCA and dissolved in 0.1 ml of SDS-PAGE sampled buffer. The cells where then washed once with PBS and lysed into 0.2 ml of lysis washed once with PBS and lysed into 0.2 ml of lysis buffer (25 mM HEPES 300 mM NaCl 1.5 mM MgCl2, 0.2 mM EDTA, 1% triton X-100, 2 mg/ml leupeptin and 10 mg/ml PMF). Cell lysates and TSA precipitated proteins from the supernatants where then subjected to 12% SDS-PAGE gels and then transferred to PVDV membranes for western blot analysis. IL-1β was probed with goat anti-IL-1β antibody and detected with the rabbit anti-goat IgG-horesradish peroxidase conjugate. […]

[2] = system: IL-1β release from human monocytes; experiment: as above
[3] = system: IL-1β release from human monocytes; experiment: proIL-1β / mature IL-1β release from LPS-activated human monocytes (FIG. 2); settings: for mature IL-1β in LPS activated cells / proIL-1β in LPS activated cells: overall statement, no concentration given; for LPS-mediated IL-1β release from human monocytes: summary statement
Procedure: as §1, §2, §3
Human α-defensin HNP-1 was obtained from Peptide International of Louisville, Ky., U.S.A. Recombinant human α-defensin HD-5 was provided by Dr. Edith Porter of California State University, Los Angeles, U.S.A. The quality of the synthetic peptides were verified by their anti-bacterial activity. Synthetic human α-defensin HNP-1 was further purified by HPLC and compared to the natural HNP-1 by acid-urea PAGE. LPS-activated human monocytes were treated with 0, 1, 10 and 100 micrograms at 37° C. for three hours. It was also treated with 2 mm ATP for IL-1β maturation. Supernatants were then collected after a 5 minute centrifugation in microphage tubes. The concentration of mature IL-1β and the supernatants was quantified by ELISA(R&D Systems). Because the ELISA is reported by the manufacturer to recognize both pro and mature IL-1β species, presence of proIL-1β and mature IL-1β in the supernatant and cell lysates was also determined by western blot analysis. Briefly, proteins were precipitated from the supernatants by addition of trichloroacetic acid (TCA: 7.5% final concentration) and cholic acid (0.1% final concentration) to each sample. The percipate proteins were washed twice with 100% acetone to extract residual TCA and dissolved in 0.1 ml of SDS-PAGE sampled buffer. The cells where then washed once with PBS and lysed into 0.2 ml of lysis washed once with PBS and lysed into 0.2 ml of lysis buffer (25 mM HEPES 300 mM NaCl 1.5 mM MgCl2, 0.2 mM EDTA, 1% triton X-100, 2 mg/ml leupeptin and 10 mg/ml PMF). Cell lysates and TSA precipitated proteins from the supernatants where then subjected to 12% SDS-PAGE gels and then transferred to PVDV membranes for western blot analysis. IL-1β was probed with goat anti-IL-1β antibody and detected with the rabbit anti-goat IgG-horesradish peroxidase conjugate.

[4] = system: IL-1β release from human monocytes
[5] = addition of ATP to the LPS-activated monocyte culture, 35S-methionine label
[6] = FIG. 2 column 3, 20 ng/ml LPS + ATP + YVAD-CMK 100 μM
[7] = FIG. 2 column 7, 10 ng/ml LPS 2 hours
[8] = FIG. 2 columns 8 and 9, increase of 20-50 mg HNP-1
[9] = overall statement, no concentration given
[10] = physiological concentrations of 5 ug to 100 ug/ml
[11] = FIG. 3 columns 2-4, 20-100 μg/ml of HNP-1, 1 mM ATP, 3 hours
[12] = FIG. 3 columns 5 and 6, 20 and 100 μg/ml of HD-1, 1 mM ATP, 3 hours

Molecule | mature IL-1β in LPS activated cells [3] | proIL-1β in LPS activated cells [3] | LPS-mediated IL-1β release from human monocytes [3] | processing of proIL-1β after it is released extracellularly [1] | ATP mediated proIL-1β release [1, 9] | ATP mediated proIL-1β release [1, 10] | ATP-mediated IL-1β release from human monocytes [1] | Staphylococcus aureus alpha-toxin-mediated IL-1β release from human monocytes [4] | other results
Nc1ncnc2c1ncn2[C@@H]1O[C@H](COP(=O)(O)OP(=O)(O)OP(=O)(O)O)[C@@H](O)[C@H]1O [ATP, Adenosine triphosphate, reference compound] | – | – | – | – | – | – | – | – | proIL-1β processed to mature IL-1β and detected in the media [1, 5]: more than 90%; release of newly synthesized proIL-1β from the cell [1, 5]: 90%
CC(=O)N[C@@H](Cc1ccc(O)cc1)C(=O)N[C@H](C(=O)N[C@@H](C)C(=O)N[C@@H](CC(=O)O)C(=O)CCl)C(C)C [YVAD-CMK, reference compound] | – | – | – | – | – | – | – | – | mature IL-1β produced (western blot) [2, 6]: no mature IL-1β proteins; proIL-1β produced (western blot) [2, 6]: substantial amount of proIL-1β
human neutrophil defensin 1 [HNP-1] | substantially completely block | inhibit; also recorded: substantially completely block | blocks | does not appear to affect | blocked in a dose dependant manner; also recorded: block ATP mediated proIL-1β release in a dose dependant manner | blocked ATP mediated proIL-1β release in a dose dependant manner | blocks | blocks | proIL-1β production ([3]; 20 ug/ml of HNP-1, FIG. 2): sufficient to block; mature IL-1β (western blot) [3, 7]: no mature IL-1β; proIL-1β (western blot) [3, 7]: some proIL-1β; mature IL-1β (western blot) [3, 8]: no mature IL-1β proteins were produced; proIL-1β (western blot) [3, 8]: no proIL-1β; mature IL-1β from ATP activated cells [2, 11]: inhibited in a dose dependant manner; proIL-1β release from ATP activated cells [2, 11]: no proIL-1β is released
human α-defensin 5 (ATCYCRTGRCATRESLSGVCEISGRLYRLCCR; ALPHA DEFENSIN HD-5; listed as Homo sapiens) [Recombinant human α-defensin produced by Paneth cells] | substantially completely block | inhibit; also recorded: substantially completely block | blocks | does not appear to affect | blocked in a dose dependant manner; also recorded: block ATP mediated proIL-1β release in a dose dependant manner | blocked ATP mediated proIL-1β release in a dose dependant manner | blocks | blocks | release of proIL-1β from the LPS-activated monocyte culture ([3]; 10 ug/ml of HD-5, FIG. 2): completely blocked; proIL-1β expressed (western blot) ([3]; FIG. 2 columns 4, 5, 6, increasing amount of HD-5, 4 million cell equivalents activated with LPS): no proIL-1β; mature IL-1β from ATP activated human monocytes [2, 12]: inhibited in a dose dependant manner; proIL-1β release from ATP activated human monocytes [2, 12]: no proIL-1β is released
